ChEMBL document CHEMBL4739717, “Methods of treating cartilage disorders through inhibition of clk and dyrk” (2020)

Legend:
[1] = Induction of chondrogenesis in human MSC assessed as maximum activity at 10 nM incubated for 6 days by rhodamine B and Nile red staining based imaging analysis relative to control; assay type: functional; settings: BMMSC, 144 h, time 6 day
[2] = Effect on Wnt signaling pathway in human SW480 cells harbouring TCF/LEF luciferase reporter gene and SP5-Luc reporter gene incubated for 36 to 48 hrs by luminescence assay; assay type: cell-based
[3] = target: Dual specificity tyrosine-phosphorylation-regulated kinase 1A (Homo sapiens, UniProt Q13627); experiment: Inhibition of recombinant DYRK1A (unknown origin) using Ser/Thr 18 peptide as substrate incubated for 1 hr in presence of ATP by FRET assay
[4] = Inhibition of IL1-beta induced MMP3 expression levels in human chondrocytes assessed as MMP3 levels incubated for 2hrs followed by IL1-beta stimulation and measured after overnight incubation by LANCE assay; assay type: functional, cell-based; settings: Chondrocyte

SMILES | EC50 [2] [nM] | EC50 [3] [nM] | EC50 [4] [nM] | Emax at 0.01 µM [1] [%]
CS(=O)(=O)NCc1cc(F)cc(-c2cncc3[nH]c(-c4n[nH]c5ncc(-c6cncc(CN7CCCCC7)c6)cc45)cc23)c1 | 1850 | 21 |  | 22.7
CN(C)Cc1cncc(-c2ccc3[nH]nc(-c4cc5cccnc5[nH]4)c3n2)c1 | > 10000 | 42 |  | 37
CCCC(=O)Nc1cncc(-c2cnc3[nH]nc(-c4cc5c(-c6cc(F)cc(CNS(C)(=O)=O)c6)cncc5[nH]4)c3c2)c1 | 1680 | 14 |  | 36.7
CN1CCN(c2nccc3[nH]c(-c4n[nH]c5cnc(-c6cncc(N)c6)cc45)cc23)CC1 | > 10000 | 16 |  | 49.8
CS(=O)(=O)NCc1cc(F)cc(-c2cncc3[nH]c(-c4n[nH]c5cnc(-c6cncc(NC(=O)C7CCC7)c6)cc45)cc23)c1 | > 10000 | 32 |  | 15.5
Cc1ncc(-c2ccc3cnc(NC(=O)C4(F)CC4)cc3c2)n1C | 2210 | 6 | 18.7 | 
O=C(Nc1cccnc1)c1n[nH]c2ccc(-c3cncc(CN4CC(CO)(CO)C4)c3)cc12 | > 10000 | 2 | 69.7 | 
O=C(Nc1ccc(N2CCCC2)nc1)c1n[nH]c2ccc(-c3cncc(CN4CCC4)c3)cc12 | > 10000 | 3 | 3000 | 
Cc1n[nH]c2ccc(-c3cncc(N4CC(C)(N)C4)n3)cc12 | 3510 | 63 | 1610 | 
O=C(CC1CCNCC1)Nc1cncc(-c2ccc3[nH]nc(-c4nc5c(-c6ccsc6)nccc5[nH]4)c3n2)c1 | > 10000 | 10 | 3000 | 
O=C(Nc1ccc(N2CCNCC2)nc1)c1n[nH]cc1/C=C/c1cccnc1 | 1650 | 1 | 0.2 | 
Cc1n[nH]c2ccc(-c3cncc(N4CCC(O)CC4)n3)cc12 | 1900 | 22 | 47.8 | 
Fc1cccc(-c2cncc3[nH]c(-c4n[nH]c5cnc(-c6cncc(OC7CCNCC7)c6)cc45)nc23)c1 | > 10000 | 5 | 1710 | 
Cc1cn(-c2cncc3[nH]c(-c4n[nH]c5ccc(-c6cncc(NC(=O)CC(C)C)c6)cc45)nc23)cn1 | 4570 | 1 | 845 | 
Cc1n[nH]c2ccc(-c3cc(OC[C@H](N)Cc4ccccc4)cnn3)cc12 | 1150 | 32 | 3000 | 
O=C(Nc1ccc(N2CC(CO)(CO)C2)nc1)c1n[nH]c2ccc(-c3cncc(CN4CCCCC4)c3)cc12 | 1500 | 2 | 6.7 | 
CN1CCC(Oc2ncc(NC(=O)c3n[nH]c4cc(F)c(-c5cnn(C)c5)cc34)cc2F)CC1 | 1150 | 1 | 12.6 | 
COc1ccc(NC(=O)c2n[nH]cc2/C=C/c2cncc(CN3CCCCC3)c2)cn1 | 1450 | 5 | 3000 | 
O=C(Nc1ccc(CN2CCCC2)cc1)c1n[nH]c2ccc(-c3cnccn3)cc12 | 1660 | 4 | 7.1 | 
Cc1n[nH]c2ccc(-c3cncc(OCC4(F)CNC4)n3)cc12 | 3250 | 25 | 35 | 
Cc1n[nH]c2ccc(-c3cncc(OC[C@@H]4Cc5ccccc5CN4)n3)cc12 | 2810 | 56 | 3000 | 
CCNCc1cncc(-c2ccc3[nH]nc(-c4nc5c(-c6ccccn6)nccc5[nH]4)c3c2)c1 | 2130 | 10 | 2.4 | 

These reach a lower EC50 [2]. Values come first.

EC50 [2] [nM] | EC50 [3] [nM] | EC50 [4] [nM] | SMILES | Emax at 0.01 µM [1] [%]
594 | 21 |  | Fc1ccc(-c2cncc3[nH]c(-c4n[nH]c5ncc(-c6cncnc6)cc45)cc23)cc1 | 23.8
40.9 | 48 |  | CCNCc1cncc(-c2cnc3[nH]nc(-c4nc5c(-c6cccc(F)c6)cccc5[nH]4)c3c2)c1 | 98.7
55.3 | 38 |  | CC(C)CC(=O)Nc1cncc(-c2cc3c(-c4nc5c(-c6ccoc6)cccc5[nH]4)n[nH]c3cn2)c1 | 58
95 | 3 | 3000 | Cc1ncc(NC(=O)c2n[nH]c3ccc(-c4cnn(C5CCN(C)CC5)c4)cc23)s1 | 
102 | 1 | 3000 | Cc1ncc(C(=O)Nc2cc3cc(-c4cnc(C)n4C)ccc3cn2)s1 | 
123 | 10 | 3000 | COc1cncc(C(=O)Nc2c[nH]nc2C(=O)Nc2ccc(CN(C)C)cc2)c1 | 
324 | 17 |  | CCCCC(=O)Nc1cncc(-c2ccc3[nH]nc(-c4cc5cccnc5[nH]4)c3c2)c1 | 34.1
415 | 82 |  | CN(C)Cc1cncc(-c2ccc3[nH]nc(-c4cc5c(-c6cccnc6)cccc5[nH]4)c3n2)c1 | 35.9
645 | 3 | 44.2 | Cc1cc(-c2ccc3[nH]nc(C(=O)Nc4ccc(OC5CCN(C)CC5)cc4)c3c2)sn1 | 
164 | 1 | 3000 | CC(C)n1cc(C(=O)Nc2cc3cc(-c4cncc(NC5CCN(C)CC5)n4)ncc3cn2)cn1 | 
500 | 4 | 303 | O=C(Nc1ccc(OC(CO)CO)nc1)c1n[nH]c2ccc(-c3cncc(CN4CCCCC4)c3)cc12 | 
795 | 6 | 2.2 | O=C(Nc1cccnc1)c1n[nH]c2ncc(-c3cccnc3)cc12 | 
513 | 6 | 32.8 | CC#CC(=O)Nc1cc2cc(-c3cnn(C)c3)ccc2cn1 | 
793 | 2 | 1200 | Cn1cc(-c2cc3c(C(=O)Nc4ccc5c(c4)CNC5)n[nH]c3cc2F)cn1 | 
0.6 | 2 | 3000 | CC(C)CC(=O)Nc1cncc(-c2cnc3[nH]nc(-c4nc5c(-c6cccc(F)c6)cncc5[nH]4)c3c2)c1 | 
558 | 8 | 3000 | COc1cncc(C(=O)Nc2c[nH]nc2C(=O)Nc2ccc3c(c2)CCN(C)C3)c1 | 
96.6 | 1 | 3000 | COc1ccc(NC(=O)c2n[nH]c3ccc(-c4cncc(CO)c4)cc23)cn1 | 
27 | 1 | 5.5 | CS(=O)(=O)c1ccc(NC(=O)c2n[nH]c3ccc(-c4cncc(CN5CCCCC5)c4)cc23)cn1 | 
162 | 10 | 0.1 | FC1(F)CCN(Cc2cncc(-c3cnc4[nH]nc(-c5nc6c(-c7ccoc7)nccc6[nH]5)c4c3)c2)C1 | 
120 | 1 | 1080 | CN1CCC(Oc2ccc(NC(=O)c3n[nH]c4cc(F)c(-c5cnn(C)c5)cc34)cn2)CC1 | 
96.6 | 6 | 604 | Cc1ccncc1-c1cc2c(-c3nc4c(-c5cc(F)cc(CNS(C)(=O)=O)c5)cncc4[nH]3)n[nH]c2cn1 | 
477 | 4 | 4.9 | CN1CCC(Oc2ccc(NC(=O)c3n[nH]c4ccc(-c5ccc(N)nc5)cc34)cc2)CC1 | 
684 | 16 | 13 | O=C(Nc1ccc(OC(F)F)cc1)c1n[nH]c2ccc(-c3cnc4n3CCNC4)cc12 | 
